molecular target: T1, recombinant human plasminogen activator inhibitor-1 (PAI-1) (Homo sapiens, UniProt P05121); test: Primary Screen for PAI-1 Inhibition (chromogenic tPA activity assay); type: biochemical; settings: 140 nM PAI-1, 70 nM tPA, pH 6.6
T1 construct: purchased Molecular Innovations, Royal Oak, Mich
Experimental: Primary Screen for PAI-1 Inhibition
The ability of the compounds of this invention to inhibit Plasminogen Activator Inhibitor-1 was established by the following experimental procedure:
Test compounds were dissolved in DMSO at a final concentration of 10 mM, then diluted […] in physiologic buffer. The inhibitory assay was initiated by the addition of the test compound (1-100 μM final concentration, maximum DMSO concentration of 0.2%) in a pH 6.6 buffer containing 140 nM recombinant human plasminogen activator inhibitor-1 (PAI-1; Molecular Innovations, Royal Oak, Mich.). Following a 1 hour incubation at room temperature, 70 nM of recombinant human tissue plasminogen activator (tPA) was added, and the combination of the test compound, PAI-1 and tPA was incubated for an additional 30 minutes. Following the second incubation, Spectrozyme-tPA (American Diagnostica, Greenwich, Conn.), a chromogenic substrate for tPA, was added and absorbance read at 405 nm at 0 and 60 minutes. Relative PAI-1 inhibition is equal to the residual tPA activity in the presence of the test compound and PAI-1. Control treatments include the complete inhibition of tPA by PAI-1 at the molar ratio employed (2:1), and the absence of any effect of the test compound on tPA alone.

T1 sequence (P05121 24-402): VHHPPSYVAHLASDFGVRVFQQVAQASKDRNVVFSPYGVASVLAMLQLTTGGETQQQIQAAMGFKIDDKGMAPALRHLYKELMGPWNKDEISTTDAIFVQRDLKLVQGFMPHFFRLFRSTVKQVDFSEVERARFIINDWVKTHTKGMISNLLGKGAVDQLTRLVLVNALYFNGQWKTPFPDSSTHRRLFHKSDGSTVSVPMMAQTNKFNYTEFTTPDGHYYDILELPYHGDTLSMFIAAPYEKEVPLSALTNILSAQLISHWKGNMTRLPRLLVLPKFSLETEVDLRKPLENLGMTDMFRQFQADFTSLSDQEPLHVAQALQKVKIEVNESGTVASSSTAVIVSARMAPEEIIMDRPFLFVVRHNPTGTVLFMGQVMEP

Inhibition at 25 µM, 6 to 78%:
CC(C)(C)c1ccc(S(=O)(=O)Nc2ccc3c(ccn3CC(=O)N[C@@H](Cc3ccccc3)C(=O)O)c2)cc1 [Example 22, N-[(5-{[(4-tert-Butylphenyl)sulfonyl]amino}-1H-indol-1-yl)acetyl]-L-phenylalanine]
O=C(O)C1CCN(C(=O)c2ccc(Cn3ccc4cc(NS(=O)(=O)c5ccc(-c6ccccc6)cc5)ccc43)cc2)CC1 [Example 18, 1-[4-({5-[(1,1′-Biphenyl-4-ylsulfonyl)amino]-1H-indol-1-yl}methyl)benzoyl]piperidine-4-carboxylic acid]
O=C(N[C@@H](Cc1ccccc1)C(=O)O)c1ccc(Cn2ccc3cc(NS(=O)(=O)c4ccccc4)ccc32)cc1 [Example 10, N-[4-({5-[(Phenylsulfonyl)amino]-1H-indol-1-yl}methyl)benzoyl]-L-phenylalanine]
CC(C)C[C@H](NC(=O)Cn1ccc2cc(NS(=O)(=O)c3ccc(C(C)(C)C)cc3)ccc21)C(=O)O [Example 24, N-[(5-{[(4-tert-butylphenyl)sulfonyl]amino}-1H-indol-1-yl)acetyl]-L-leucine]
CC(C)(C)c1ccc(S(=O)(=O)Nc2ccc3c(ccn3Cc3ccc(C(=O)N[C@@H](Cc4ccccc4)C(=O)O)cc3)c2)cc1 [Example 13, N-{4-[(5-{[(4-tert-Butylphenyl)sulfonyl]amino}-1H-indol-1-yl)methyl]benzoyl}-L-phenylalanine]
CC(C)(C)c1ccc(S(=O)(=O)Nc2ccc3c(ccn3Cc3ccc(OCC(=O)O)cc3)c2)cc1 [Example 8, {4-[(5-{[(4-tert-Butylphenyl)sulfonyl]amino}-1H-indol-1-yl)methyl]phenoxy}acetic acid]
CC(C)(C)c1ccc(Cn2ccc3cc(NS(=O)(=O)c4cccc(C(=O)O)c4)ccc32)cc1 [Example 1, 3-({[1-(4-tert-butylbenzyl)-1H-indol-5-yl]amino}sulfonyl)benzoic acid]
CC(C)(C)c1ccc(Cn2ccc3cc(NC(=O)N[C@@H](Cc4ccccc4)C(=O)O)ccc32)cc1 [Example 5, N-({[1-(4-tert-Butylbenzyl)-1H-indol-5-yl]amino}carbonyl)-L-phenylalanine]
COC(=O)CN(c1ccc2c(ccn2Cc2ccc(C(C)(C)C)cc2)c1)S(=O)(=O)c1ccccc1 [Example 2, {Benzenesulfonyl-[1-(4-tert-butyl-benzyl)-1H-indol-5-yl]-amino}-acetic acid methyl ester]
O=C(O)Cn1ccc2cc(NS(=O)(=O)c3ccc(-c4ccccc4)cc3)ccc21 [Example 20, {5-[(1,1′-Biphenyl-4-ylsulfonyl)amino]-1H-indol-1-yl}acetic acid]
O=C(O)C1CCN(C(=O)c2ccc(Cn3ccc4cc(NS(=O)(=O)c5ccc(Cl)c(Cl)c5)ccc43)cc2)CC1 [Example 17, 1-{4-[(5-{[(3,4-Dichlorophenyl)sulfonyl]amino}-1H-indol-1 yl)methyl]benzoyl}piperidine-4-carboxylic acid]
CC(C)C[C@H](NC(=O)Cn1ccc2cc(NS(=O)(=O)c3ccc(-c4ccccc4)cc3)ccc21)C(=O)O [Example 23, N-({5-[(1,1′-biphenyl-4-ylsulfonyl)amino]-1H-indol-1-yl}acetyl)-L-leucine]
O=C(O)CCNC(=O)c1ccc(Cn2ccc3cc(NS(=O)(=O)c4ccc(-c5ccccc5)cc4)ccc32)cc1 [Example 15, N-[4-({5-[(1,1′-Biphenyl-4-ylsulfonyl)amino]-1H-indol-1-yl}methyl)benzoyl]-β-alanine]
CC(C)(C)c1ccc(Cn2ccc3cc(N(Cc4ccc(C(=O)O)cc4)S(=O)(=O)c4ccccc4)ccc32)cc1 [Example 3, 4-{[[1-(4-tert-Butylbenzyl)-1H-indol-5-yl](phenylsulfonyl)amino]methyl}benzoic acid]
O=C(O)C(Cc1ccccc1)n1ccc2cc(NS(=O)(=O)c3ccc(OC(F)(F)F)cc3)ccc21 (stereo not drawn) [Example 9, 3-Phenyl-2-[5-({[4-(trifluoromethoxy)phenyl]sulfonyl}amino)-1H-indol-1-yl]propanoic acid]
O=C(O)COc1ccc(Cn2ccc3cc(NS(=O)(=O)c4ccc(-c5ccccc5)cc4)ccc32)cc1 [Example 7, [4-({5-[(1,1′-Biphenyl-4-ylsulfonyl)amino]-1H-indol-1-yl}methyl)phenoxy]acetic acid]
CC(C)(C)c1ccc(S(=O)(=O)Nc2ccc3c(ccn3Cc3ccc(C(=O)N4CCC(C(=O)O)CC4)cc3)c2)cc1 [Example 19, 1-{4-[(5-{[(4-tert-Butylphenyl)sulfonyl]amino}-1H-indol-1-yl)methyl]benzoyl}piperidine-4-carboxylic acid]
O=C(O)CCNC(=O)c1ccc(Cn2ccc3cc(NS(=O)(=O)c4ccc(OC(F)(F)F)cc4)ccc32)cc1 [Example 14, N-(4-{[5-({[4-(Trifluoromethoxy)phenyl]sulfonyl}amino)-1H-indol-1-yl]methyl}benzoyl)-β-alanine]
O=C(N[C@@H](Cc1ccccc1)C(=O)O)c1ccc(Cn2ccc3cc(NS(=O)(=O)c4ccc(-c5ccccc5)cc4)ccc32)cc1 [Example 12, N-[4-({5-[(1,1′-Biphenyl-4-ylsulfonyl)amino]-1H-indol-1-yl}methyl)benzoyl]-L-phenylalanine]
O=C(N[C@@H](Cc1ccccc1)C(=O)O)c1ccc(Cn2ccc3cc(NS(=O)(=O)c4ccc(OC(F)(F)F)cc4)ccc32)cc1 [Example 11, N-(4-{[5-({[4-(Trifluoromethoxy)phenyl]sulfonyl}amino)-1H-indol-1-yl]methyl}benzoyl)-L-phenylalanine]
O=C(Cn1ccc2cc(NS(=O)(=O)c3ccc(-c4ccccc4)cc3)ccc21)N[C@@H](Cc1ccccc1)C(=O)O [Example 21, N-({5-[(1,1′-Biphenyl-4-ylsulfonyl)amino]-1H-indol-1-yl}acetyl)-L-phenylalanine]
CC(C)(C)c1ccc(S(=O)(=O)Nc2ccc3c(ccn3Cc3ccc(C(=O)NCCC(=O)O)cc3)c2)cc1 [Example 16, N-{4-[(5-{[(4-tert-Butylphenyl)sulfonyl]amino}-1H-indol-1-yl)methyl]benzoyl}-β-alanine]
CC(C)(C)c1ccc(Cn2ccc3cc(NC(=O)Nc4cccc(C(=O)O)c4)ccc32)cc1 [Example 6, 3-[({[1-(4-tert-Butylbenzyl)-1H-indol-5-yl]amino}carbonyl)amino]benzoic acid]
CC(C)(C)c1ccc(Cn2ccc3cc(NS(=O)(=O)c4ccc(C(=O)O)cc4)ccc32)cc1 [Example 4, 4-({[1-(4-tert-butylbenzyl)-1H-indol-5-yl]amino}sulfonyl)benzoic acid]

From patent US7683091B2, “Substituted indoles and methods of their use” (Wyeth, priority 2005, dated 2010)
